Test results reported in patent US4783480A, “6-keto-prostaglandin E1 derivatives” (Ono Pharmaceutical Co., Ltd., priority 1986, dated 1988).

How the values were obtained:
blood pressure = assay: hypotensive activity in the anesthetized dog, intravenous administration; assay type: in vivo; conditions: relative to PGE1 = 1
Procedure: (ii) hypotensive activity in dogs and
(ii) Hypotensive activity was measured in the anesthetized dog by intravenous administration, and as active control, PGE1 was used.

[1] = tested on: blood platelet aggregation induced by ADP; assay: inhibitory activity of blood platelet aggregation induced by ADP in rats; assay type: cell-based, rat; conditions: relative to PGE1 = 1
Text: (iii) inhibitory activity of blood platelet aggregation induced by ADP in rats. The experimental methods are described hereinafter.
(iii) The concentrations required to inhibit blood platelet aggregation induced in rats by ADP (adenosine diphosphate) are shown relative to PGE1.

[2] = tested on: carbon tetrachloride-induced acute liver damage (plasma GOT and GPT); assay: cytoprotective activity in carbon tetrachloride-induced acute liver damage in rats; assay type: in vivo, rat; conditions: for minimal effective dose: Rattus norvegicus, sc, rats, dosed three times (0, 6, 12 hrs), read-out: Inhibiting activity of CCl4 induced liver damage, minimum effective dose; for activity in the inhibition of liver damage induced by carbon tetrachloride compared with compounds (d) and (e): words
Procedure: (i) cytoprotective activity in carbon tetrachloride-induced acute liver damage in rats.
(i) Inhibitory activity on liver damage induced by carbon tetrachloride.
A solution of carbon tetrachloride (2000 μl) dissolved in olive oil (10 ml) was administered to Wistar male rates (body weight 190-220 g) at a rate of 2000 μl/kg animal body weight by intraperitoneal injection.
A solution of a compound of the present invention or of one of the comparison compounds in olive oil (2 ml/kg animal body weight) was administered three times, at the same time as, and then 6 hrs and 12 hrs after, the dosage of carbon tetrachloride, and blood was collected twice after 24 hrs and 48 hrs after the first dosage. The blood was centrifuged and plasma GOT (glutamic oxalacetic transaminase) activity and plasma GPT (glutamic pyruvic transaminase) activity were measured.

[3] = toxicity (LD50) by intravenous administration in mice; conditions: mouse, in vivo

SMILES	Hypotensive activity (PGE1 = 1) (blood pressure)	Inhibiting activity of blood platelet aggregation (PGE1 = 1) [1]	minimal effective dose [2] [mg/kg]	activity in the inhibition of liver damage induced by carbon tetrachloride compared with compounds (d) and (e) [2]	LD50 [3] [mg/kg]
CCCC[C@H]1CC[C@H]([C@H](O)/C=C/[C@H]2[C@H](O)CC(=O)[C@@H]2CC(=O)CCCCC(=O)N[C@@H](CC(C)C)C(=O)O)C1 [1(b), N-[(13E)-(11α,15α,16S,18S)-6,9-dioxo-11,15-dihydroxy-16,18-ethano-20-ethylprost-13-en-1-oyl]-L-leucine]	0.01	0.01	< 0.01	almost the same activity	30
CCCCC(C)C[C@H](O)/C=C/[C@H]1[C@H](O)CC(=O)[C@@H]1CC(=O)CCCCC(=O)O (some centres unmarked) [(d), reference compound]	21	68	0.03	–	–
CCCC[C@H]1CC[C@H]([C@H](O)/C=C/[C@H]2[C@H](O)CC(=O)[C@@H]2CC(=O)CCCCC(=O)O)C1 [(e), reference compound]	24.5	506	0.005	–	–
CCCC[C@H]1CC[C@H]([C@H](O)/C=C/[C@H]2[C@H](O)CC(=O)[C@@H]2CC(=O)CCCCC(=O)N[C@@H](Cc2ccccc2)C(=O)O)C1 [Example 1, N-[(13E)-(11α,15α,16S,18S)-6,9-dioxo-11,15-dihydroxy-16,18-ethano-20-ethylprost-13-en-1-oyl]-L-phenylalanine]	0.03	0.01	< 0.01	almost the same activity	22
CCCC[C@H](C)C[C@H](O)/C=C/[C@H]1[C@H](O)CC(=O)[C@@H]1CC(=O)CCCCC(=O)N[C@@H](Cc1ccccc1)C(=O)OC [Example 2(a), N[(13E)-(11α,15α,17S)6,9-dioxo-11,15-dihydroxy-17,20-dimethylprost-13-en-1-oyl]-L-phenylalanine methyl ester]	0.014	0.0053	0.03	almost the same activity	–
